Laboratory results as given in PubChem BioAssay AID489035 (Sanford-Burnham Center for Chemical Genomics, 2010).
Active and inactive are the calls of the source. How the calls were made is not given here.

System: Jurkat NF-kB reporter, TCR-induced, luciferase luminescence
Experiment: inhibitors of TCR-driven NF-kB activation, dose response, Jurkat cells, luminescence (AID 489035)

Row | SMILES | IC50
1 | Cc1c(C)c2cccnc2c2ncccc12 | 2.02 µM
2 | CCCCCCCn1c2c(c(=N)c3ccccc31)CCC2 | 12.3 µM
3 | CCCC(=O)Nc1nc2ccc(S(=O)(=O)N3CCCCC3)cc2s1 | > 80 µM (inactive)
4 | CC1(C)Cc2c(sc(NC(=O)COc3cccc4ccccc34)c2C#N)C(C)(C)N1 | 13.5 µM
5 | COc1ccc(OC)c(-c2nnc3n2N=C(c2ccc(OC)c(OC4CCCC4)c2)CS3)c1 | 15.9 µM
6 | COc1cccc(N2CCN(C(=O)c3cn(Cc4ccccc4)nc3-c3cccnc3)CC2)c1 | > 80 µM (inactive)
7 | Nc1nc(-c2ccccc2)cc(N2CCCCC2)n1 | > 80 µM (inactive)
8 | O=[N+]([O-])c1nn(-c2ccc3c(c2)OCCO3)n(O)c1=Nc1ccccc1 | 1.05 µM
9 | CCCN1C=CC(=C2C(=O)c3ccccc3C2=O)C=C1 | 0.52 µM
10 | O=C1C=CC(O)(c2cc(=O)c3c(O)cc(O)cc3o2)C=C1 | 2.21 µM
11 | Cc1ccc(C(=O)c2cc([N+](=O)[O-])ccc2N2CCCCC2)cc1C | 37 µM (inactive)
12 | C(=N\Nc1nc2ccccc2s1)/c1ccccn1 | 0.84 µM
13 | CCOC(=O)c1ccc(Nc2nc(N)c3cc(OC)c(OC)cc3n2)cc1 | > 80 µM (inactive)
14 | CCn1cc(C(=O)NC2CCCc3c2cnn3-c2cccc(C)c2C)cn1 (configuration not stated) | > 80 µM (inactive)
15 | Cc1cc(C)cc(NC(=O)c2cc(C)n(Cc3cccs3)c2C)c1 | 5.13 µM
16 | COc1ccc(OC)c(COC(=O)c2cc([N+](=O)[O-])ccc2N2CCOCC2)c1 | 71.8 µM (inactive)
17 | CC1=Nc2ccccc2/C1=C\c1sc(Nc2ccc(C)cc2)nc1O | > 80 µM (inactive)
18 | CSc1nc(N(C)NC(=O)c2cccc(C)c2)c2ccccc2n1 | 27.8 µM (inactive)
19 | CCc1cc(C(=O)NC2CCCc3c2cnn3-c2cccc(C)c2C)n(C)n1 (configuration not stated) | > 80 µM (inactive)
20 | CCCCC(=O)NC(c1ccc(N(C)C)cc1)c1ccc2cccnc2c1O (configuration not stated) | > 80 µM (inactive)
21 | CCc1ccc2nc(SCC(=O)Nc3ccccc3N3CCOCC3)c(C#N)cc2c1 | 32.4 µM (inactive)
22 | O=C(NNc1ccnc2cc(Cl)ccc12)C1CCCCC1 | > 80 µM (inactive)
23 | CCOC(=O)C1CCN(S(=O)(=O)c2c(Cl)ccc3nonc23)CC1 | 1.88 µM
24 | O=[N+]([O-])c1ccc(Sc2ccc(Cl)c(Cl)c2)nc1 | 2.99 µM
25 | Cc1c(C(=O)OCC(C)C)[nH]c2c1C(=O)CC(c1cccs1)C2 (configuration not stated) | > 80 µM (inactive)
26 | Cc1ccc2cccc(NS(=O)(=O)c3ccccc3)c2n1 | 0.98 µM

Row | SMILES | IC50
27 | Cc1ccc(C(=O)c2cc([N+](=O)[O-])ccc2N2CCCCC2)cc1 | > 80 µM (inactive)
28 | COC(=O)C1CN(C#N)N(c2ccc(Cl)cc2)C12c1ccccc1-c1ccccc12 (configuration not stated) | 0.9 µM
29 | CN(Cc1ccccc1)C1=CC(=[N+]2CCCC2)CC(C)(C)C1 | 55.1 µM (inactive)
30 | CC(=O)NC(c1ccc(C(C)C)cc1)c1ccc2cccnc2c1O (configuration not stated) | 3.06 µM
31 | CCCC(=O)NC(c1ccc(N(C)C)cc1)c1ccc2cccnc2c1O (configuration not stated) | 6.58 µM
32 | CCOc1cc(C#N)c(NC(=O)c2cccnc2)cc1OCC | > 80 µM (inactive)
33 | Cc1ccc2c(c1)COc1c3ccc(C(=O)O)cc3nn1-2 | > 80 µM (inactive)
34 | COc1cc(NS(C)(=O)=O)ccc1Nc1c2ccccc2nc2ccccc12 | 9.5 µM
35 | O=C(c1cn(Cc2ccccc2)nc1-c1ccccc1)N1CCN(c2ccccn2)CC1 | > 80 µM (inactive)
36 | CNC[C@H](CC1CCCCC1)NC[C@H](Cc1ccccc1)NCCC12CC3CC(CC(C3)C1)C2 | 2.42 µM
37 | O=C(N/N=C/c1c(O)ccc2ccccc12)c1ccc(Br)o1 | 60.7 µM (inactive)
38 | COc1ccc2c(C)nc(Nc3nc(-c4ccccc4)cc(=O)[nH]3)nc2c1 | > 80 µM (inactive)
39 | COc1ccc(NC(=O)/C(Cl)=C(/Cl)S(=O)Cc2ccc(Cl)cc2)cn1 (configuration not stated) | 0.27 µM
40 | CC[C@@]1(O)C(=O)OCc2c1cc1n(c2=O)Cc2cc3c(CN(C)C)c(O)ccc3nc2-1 | 0.2 µM
41 | Cc1cccc(NS(=O)(=O)c2ccc(-c3cnc(C4CC4)o3)cc2)c1C | 27.6 µM (inactive)
42 | COc1cc(OC)c(/C=C2\C(=O)Nc3ccccc32)c(OC)c1 | 18.4 µM
43 | CCC1CCCCN1C(=O)c1cc(COc2ccc3ncccc3c2)on1 (configuration not stated) | > 80 µM (inactive)
44 | CCOc1ccccc1NC(=O)Cn1nnc(C(=O)NCc2ccco2)c1N | > 80 µM (inactive)
45 | C[C@]12CC[C@H](O)C[C@H]1CC[C@@H]1[C@@H]2C[C@@H](O)[C@]2(C)[C@@H](C3=CC(=O)OC3)CC[C@]12O | 65.7 µM (inactive)
46 | Cc1oc2c(c1C(=O)NCc1cccnc1)C(=O)c1ccccc1C2=O | 1.1 µM
47 | CCCCCCCCCCCCCCCC[n+]1cccc(C(=O)N(CC)CC)c1 | 3.02 µM
48 | CCOc1ccc(Br)cc1C1=CC(=O)C[C@H](c2ccc(OC)cc2)C1 | > 80 µM (inactive)
49 | Cc1ccc2c(c1)sc(-c1ccc(N(C)C)cc1)[n+]2C | > 80 µM (inactive)
50 | O=C(Nc1ccccc1Cl)/C(Cl)=C(\Cl)S(=O)c1ccccc1 (configuration not stated) | 1.77 µM
51 | COc1cc(/C=C/[N+](=O)[O-])ccc1OCc1cccc(C(=O)O)c1 | 0.55 µM
52 | COC(=O)C1=C(CN2CCCc3ccccc32)NC(=O)NC1c1ccc(F)cc1 (configuration not stated) | 1.01 µM
